Results taken from US12233161B1, “Lipids and lipid nanoparticle formulations” (LONGUIDE BIOPHARMA CORPORATION, priority 2024, dated 2025).

How the values were obtained:
mice [1] = test: In vivo delivery of FLuc-circ-RNA lipid nanoparticles in mice; conditions: Fluc-circ-RNA LNP, IV
Description: Lipid nanoparticles loaded with nucleic acid drugs were prepared according to step 2, replacing FLuc-mRNA with FLuc-circ-RNA (Hongene Biotech Corporation, Shanghai). After formulation, the nanoparticles were administered via intramuscular injection (into the quadriceps femoris muscle of mice), intravenous injection (into the tail vein of mice), intraperitoneal injection, or subcutaneous injection (subcutaneously on the back). Approximately 75 μL was injected per mouse, with a total of 3 mice per group. In vivo imaging (PerkinElmer, IVIS Lumina III) was performed after a certain period of time. Ten to fifteen minutes before imaging, 200 μL of a 15 mg/mL D-Luciferin working solution was injected intraperitoneally, followed by imaging analysis using the in vivo imaging system.

[2] = Particle size and PDI of nucleic acid lipid nanoparticle preparations by dynamic light scattering; format: physicochemical
Method in brief: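 Size read by DLS after diluting the LNP preparation (approx. 0.04 mg/mL mRNA) in ultrapure water with gentle pipette mixing. The same sample, recovered and diluted further with water, was then used for zeta potential measurement.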

mice [3] = test: In vivo delivery of FLuc-mRNA lipid nanoparticles in mice, in vivo imaging (IVIS)
Method in brief: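 Mice (n=3) received about 75 μL FLuc-mRNA LNP per mouse intramuscularly (rectus femoris), intravenously (tail vein), intraperitoneally or subcutaneously (back). After injection, D-luciferin (200 μL, 15 mg/mL) was given i.p. 10-15 min before IVIS imaging.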

[4] = Potential characterization of nucleic acid lipid nanoparticle preparations; format: physicochemical; conditions: Fluc-circ-RNA LNP, preparation given IV
Method in brief: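 Nanoparticles (about 0.04 mg/mL mRNA) were diluted in ultrapure water for Malvern ZEN3700 measurement: 20 μL into 780 μL for potential alone, or 27.5 μL into 200 μL for DLS particle size followed by addition of 600 μL water for potential.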

[5] = DMG-PEG2000:DSPC:Chol:Lipid 1.00:11.50:22.50:65.00, N/P 65, mRNA LNP
[6] = DMG-PEG2000:DSPC:Chol:Lipid 1.00:16.00:48.00:35.00, N/P 18, mRNA LNP
[7] = DMG-PEG2000:DSPC:Chol:Lipid 1.00:16.00:48.00:35.00, N/P 30, mRNA LNP
[8] = DMG-PEG2000:DSPC:Chol:Lipid 1.47:11.16:38.97:48.40, N/P 30, mRNA LNP
[9] = Fluc-circ-RNA LNP, preparation given IV
[10] = DMG-PEG2000:DSPC:Chol:Lipid 1.00:11.50:22.50:65.00, N/P 65, IV, liver
[11] = DMG-PEG2000:DSPC:Chol:Lipid 1.00:11.50:22.50:65.00, N/P 65, IV, lung
[12] = DMG-PEG2000:DSPC:Chol:Lipid 1.00:11.50:22.50:65.00, N/P 65, IV, spleen
[13] = DMG-PEG2000:DSPC:Chol:Lipid 1.00:16.00:48.00:35.00, N/P 18, IV, liver
[14] = DMG-PEG2000:DSPC:Chol:Lipid 1.00:16.00:48.00:35.00, N/P 18, IV, lung
[15] = DMG-PEG2000:DSPC:Chol:Lipid 1.00:16.00:48.00:35.00, N/P 18, IV, spleen
[16] = DMG-PEG2000:DSPC:Chol:Lipid 1.00:16.00:48.00:35.00, N/P 30, IV, liver
[17] = DMG-PEG2000:DSPC:Chol:Lipid 1.00:16.00:48.00:35.00, N/P 30, IV, lung
[18] = DMG-PEG2000:DSPC:Chol:Lipid 1.00:16.00:48.00:35.00, N/P 30, IV, spleen

CCCCCCCCCCCCOC(=O)C(O)CN(CCN(C)CCN(CC(O)C(=O)OCCCCCCCCCCCC)CC(O)C(=O)OCCCCCCCCCCCC)CC(O)C(=O)OCCCCCCCCCCCC (stereo not shown) [Compound L0262]
% of organ targeting (mice [1]; liver): 3.78%
% of organ targeting (mice [1]; lung): 8.14%
% of organ targeting (mice [1]; spleen): 88.08%
PDI [2, 5]: 0.22 ± 0.01
Particle size [2, 5]: 145.43 ± 1.37 nm
PDI [2, 6]: 0.16 ± 0.03
Particle size [2, 6]: 135.90 ± 1.28 nm
PDI [2, 7]: 0.18 ± 0.02
Particle size [2, 7]: 137.37 ± 1.50 nm
PDI [2, 8]: 0.24 ± 0.02
Particle size [2, 8]: 93.36 ± 1.24 nm
PDI [2, 9]: 0.16
Particle size (nm) [2, 9]: 128.4 nm
IVIS (mice [3]; DMG-PEG2000:DSPC:Chol:Lipid 1.00:11.50:22.50:65.00, N/P 65, IV, body): 2.54 × 10^7
% of organ targeting (mice [3]; [10]): 1.47%
IVIS (mice [3]; [10]): 1.32 × 10^6
% of organ targeting (mice [3]; [11]): 85.62%
IVIS (mice [3]; [11]): 7.69 × 10^7
% of organ targeting (mice [3]; [12]): 12.91%
IVIS (mice [3]; [12]): 1.16 × 10^7
IVIS (mice [3]; DMG-PEG2000:DSPC:Chol:Lipid 1.00:16.00:48.00:35.00, N/P 18, IV, body): 1.06 × 10^8
% of organ targeting (mice [3]; [13]): 5.38%
IVIS (mice [3]; [13]): 5.61 × 10^6
% of organ targeting (mice [3]; [14]): 1.85%
IVIS (mice [3]; [14]): 1.93 × 10^6
% of organ targeting (mice [3]; [15]): 92.76%
IVIS (mice [3]; [15]): 9.67 × 10^7
IVIS (mice [3]; DMG-PEG2000:DSPC:Chol:Lipid 1.00:16.00:48.00:35.00, N/P 30, IV, body): 2.91 × 10^7
% of organ targeting (mice [3]; [16]): 15.31%
IVIS (mice [3]; [16]): 3.92 × 10^6
% of organ targeting (mice [3]; [17]): 11.64%
IVIS (mice [3]; [17]): 2.98 × 10^6
% of organ targeting (mice [3]; [18]): 73.05%
IVIS (mice [3]; [18]): 1.87 × 10^7
IVIS (mice [3]; DMG-PEG2000:DSPC:Chol:Lipid 1.47:11.16:38.97:48.40, N/P 30, IM, whole body scan): 2.83 × 10^5
tissue-targeting specificity (lung vs spleen depending on molar percentage of compound) (mice [3]; certain formulations, Table 2): strong tissue-targeting specificity
Zeta potential (mV) [4]: 15.53 mV
